Test results: patent US20100303833A1, “Method for Identifying a MHC Class H-Dependent Tumor Associated T Helper Cell Antigen” (priority 2005, published 2010)
Ends that are not written are not given here.

Columns and labels:
Assay type in all cases: cell-based, human
PBMC = assay: Lymphocyte proliferation assay ([3H]-thymidine incorporation), PBMC with peptide-pulsed autologous monocytes
Procedure: (§1) Lymphocyte Proliferation Assay. The lymphocyte proliferation assay was performed according to standard methods (Somasundaram, et al. (1995) J. Immunol. 155:3253-61). For screening of Th35-1A cell-reactivity with phage libraries, T helper cells (1-2×10^4/well of 96-well round-bottom microtiter plates; CORNING, Corning, N.Y.) were cultured with irradiated autologous EBV-B cells (10^4/well) pre-pulsed with 1-3×10^3 phage. To determine T helper or PBMC reactivity with peptide, adherent monocytes (5×10^4/well, obtained from PBMC) pre-pulsed with various concentrations (3.1-50 μM) of peptide were incubated with Th35-1A cells or PBMC (5×10^4/well). T helper cells or PBMC were stimulated with peptide-pulsed monocytes once or twice. All incubations were at 37° C. for 5 days in RPMI 1640/GLUTAMAX medium supplemented with 10% heat-inactivated human AB serum (Gemini Bioproducts, West Sacramento, Calif.), 10 mM HEPES and 5×10^−5 M 2-mercaptoethanol (both from SIGMA-ALDRICH). Proliferative responses of lymphocytes were determined using a standard [^3H]-thymidine incorporation assay. All determinations were performed in triplicate. Results are expressed as counts per minute (cpm) incorporated into lymphocytes. The lymphocyte proliferation inhibition assay with anti-HLA class II antibody B33.1 was performed using established methods (Somasundaram, et al. (1995) supra).

lymphocytes = assay: IFN-γ release assay (ELISA)
Procedure: IFN-γ Release Assay. Supernatants obtained 48 hours after T helper cell stimulation with phage-pulsed EBV-B cells were tested for the presence of IFN-γ using an ENDOGEN ELISA kit (Pierce Biotechnology, Inc., Rockford, Ill.).

Th35-1A cells = assay: Lymphocyte proliferation assay ([3H]-thymidine incorporation), Th35-1A cells with peptide-pulsed monocytes; details: for HLA dependence of peptide recognition by Th35-1A: peptide-pulsed autologous DR7+ monocytes, anti-HLA class II antibody or control mouse Ig at 10 μg/mL (FIG. 2A)
Procedure: as §1

**Q.** How did the “Proliferation of autologous PBMC following peptide stimulation” value (PBMC; lymphocytes from two of the three DR7+ melanoma patients (FIGS. 3A-3C), stimulated twice) turn out when “TGRLRGTKTVQEKEN [peptide #2, RPL8 position 243-257]” was run?
**A.** significantly and specifically proliferated

**Q.** And the “Lymphoproliferative responses to peptide stimulation” value (PBMC; two DR7− melanoma patients (FIGS. 3D, 3E) and four healthy donors (FIG. 3F), one peptide stimulation, listed as RPL8 peptide #2)?
**A.** did not respond

**Q.** And the IFN-γ produced (lymphocytes; non-proliferating lymphocytes from two DR7− patients (FIGS. 3D, 3E) and healthy donor (FIG. 3F))?
**A.** < 12 pg/mL

**Q.** What about the IFN-γ produced maximally (lymphocytes; proliferating lymphocytes from DR7+ patient of FIG. 3A) of the same sequence?
**A.** 124.3±1.67 pg per mL

**Q.** And the IFN-γ produced maximally (lymphocytes; proliferating lymphocytes from DR7+ patient of FIG. 3B)?
**A.** 224.3±4.3 pg per mL

**Q.** And the “Recognition by Th35-1A” value (Th35-1A cells; after presentation by autologous monocytes (FIG. 2A))?
**A.** recognized

**Q.** And the “Presentation of peptide to Th35-1A cells by allogeneic DR7+ monocytes” value (Th35-1A cells; allogeneic DR7+ monocytes (FIG. 2C))?
**A.** presented

**Q.** And the “Presentation of peptide to Th35-1A cells by DR7− monocytes” value (Th35-1A cells; allogeneic DR7− monocytes (FIG. 2D))?
**A.** did not

**Q.** What about the “HLA dependence of peptide recognition by Th35-1A” value (Th35-1A cells) of the same sequence?
**A.** HLA class II-dependent

**Q.** What about the “HLA dependence of peptide recognition by Th35-1A” value (Th35-1A cells; listed as RPL8 peptide #2) of the same sequence?
**A.** HLA DR7- and peptide concentration-dependent

**Q.** And the “Th35-1A proliferation, dependence on peptide concentration” value (Th35-1A cells; peptide-pulsed autologous monocytes, various concentrations (FIG. 2B))?
**A.** peptide concentration-dependent
